# Results taken from paper PMC4280898, “Diazido Mixed-Amine Platinum(IV) Anticancer Complexes Activatable by Visible-Light Form Novel DNA Adducts” (Chemistry (Weinheim an Der Bergstrasse, Germany), 2013).
# Values joined by “and” are separate entries in the source; they are usually repeats but may differ in a detail not shown here. Equal entries are not always repeated.
# Columns and labels:
# [1] = system: 212 bp NdeI–HpaI fragment of pSP73KB DNA; assay: Transcription mapping of DNA adducts (T7 RNA polymerase); assay type: biochemical; details: in the dark; rb=0.01
# Protocol: Sequence preference of DNA adducts: Transcription mapping experiments were performed to determine the DNA binding sites for Pt complexes. The experiments were carried out using a linear 212 bp DNA fragment (sequence in Figure 9 B), randomly modified by transplatin (8), cisplatin (7), 5 or 6 in the dark or by 1 and 2 photoactivated with blue light (420 nm) at rb=0.01 (rb is defined as the number of the molecules of platinum complex coordinated per nucleotide residue), for RNA synthesis by T7 RNA polymerase (Figure 9 A, lanes 8, 7, 5, 6, 1 and 2, respectively). RNA synthesis on the template modified by the platinum complexes produced fragments of defined sizes (Figure 9 A), which indicate the sites where RNA synthesis was prematurely terminated. It should be noted that RNA synthesis by T7 RNA polymerase is prematurely terminated only due to the platinum adducts on the template strand.[23] […] The ability to bind to A and C sites is consistent with the result from AMP and CMP binding experiments (Figure S18 in the Supporting Information).
# Figure 9 Inhibition of RNA synthesis by T7 RNA polymerase on the NdeI–HpaI fragment of pSP73KB plasmid DNA modified by complexes 5 or 6, cisplatin (7) or transplatin (8) in the dark, or with photoactivated 1 or 2 (420 nm light). A) Autoradiogram of a polyacrylamide (6 %)/urea (8 M) sequencing gel. […]
# (§1) assayed by differential pulse polarography for free, unbound platinum.[16] The amount of platinum bound to DNA was calculated by subtracting the amount of free (unbound) platinum from the total amount of platinum present in the reaction. […]
# This fragment contained T7 RNA polymerase promoter (in the upper strand close to its 3'-end). […] The fragments produced in RNA synthesis on the template modified by the platinum complexes were analysed by a 6% polyacrylamide/8M urea sequencing gel.
# Quantification of DNA adducts […]
# Platinum associated with DNA was assessed by flameless atomic absorption […]
# Quantification of DNA interstrand cross-links […]
# calf thymus DNA = assay: Binding to calf thymus DNA (differential pulse polarography); details: in the dark; ri=0.05, 10 mM NaClO4, 310 K
# Protocol: Binding to calf thymus DNA: Samples of double-helical calf thymus DNA (32 μg mL^−1) were treated with the Pt complexes at the ri=0.05 (ri is defined as the molar ratio of free platinum complex to nucleotide phosphates at the onset of incubation with DNA) in NaClO4 (10 mM) and incubated at 310 K in the dark for complexes 5 or 6 (Figure 7 C and D). For complexes 1 or 2, samples were irradiated continuously with 420 nm light for 30 min and then further incubated in the dark for up to 24 h so that the activated forms of the complexes could bind DNA (Figure 7 A and B). The amount of Pt bound to DNA increased with time for all four complexes. […]
# the UKS method with the unrestricted PBE1PBE functional was employed. […] Thirty-two singlet and eight triplet excited states with the corresponding oscillator strengths were determined with a Time-dependent Density Functional Theory (TDDFT)[15] calculation. […]
# as §1
# This fragment contained T7 RNA polymerase promoter (in the upper strand close to its 3'-end). […] The fragments produced in RNA synthesis on the template modified by the platinum complexes were analysed by a 6% polyacrylamide/8M urea sequencing gel. […]
smiles,measurement,setting,value
"C[NH2+][Pt@SP3-2]([Cl])([Cl])[n+]1ccccc1 [Complex 5, trans-[PtCl2(MA)(Py)]]",Sequence specificity,[1],"stop sites mainly at G and C and G, C"
same,Pt bound after 24 h,calf thymus DNA,80(±5) % and 80±5%
"C[NH2+][Pt@SP3-2]([Cl])([Cl])[n+]1ccsc1 [Complex 6, trans-[PtCl2(MA)(Tz)]]",Sequence specificity,[1],"stop sites mainly at G and C and G, C"
same,Pt bound after 24 h,calf thymus DNA,63(±5) % and 63±5%
